Results as given in PubChem BioAssay AID2060898 (Molecular Pharmacology Branch, DTP, NCI, 2025).

System: 616215-338-R-J1-PDC complex spheroid viability
Experiment: Anticancer human tumor 616215-338-R-J1-PDC patient-derived colon adenocarcinoma cell line growth inhibition [RAS]
Settings: for IC50: curve of first compound; for viability, T/C: stronger effect = lower value; active = viability on the fitted dose curve at most 10% of control; inactive = the rest
Summary of the method: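 Tumour cells grown as complex spheroids with HUVEC endothelial cells and mesenchymal stem cells, treated with RAS pathway inhibitor combinations. Each agent spans half-log steps from near clinical Cmax, or 10 microM where Cmax is unknown.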

[1] = second compound 0.00316 µM, first compound 0.000949 µM
[2] = second compound 0.00316 µM, first compound 0.003 µM
[3] = second compound 0.00316 µM, first compound 0.00949 µM
[4] = second compound 0.00316 µM, first compound 0.03 µM
[5] = second compound 0.00316 µM, first compound 0.0949 µM
[6] = second compound 0.00316 µM, first compound 0.3 µM
[7] = second compound 0.01 µM, first compound 0.000949 µM
[8] = second compound 0.01 µM, first compound 0.003 µM
[9] = second compound 0.01 µM, first compound 0.00949 µM
[10] = second compound 0.01 µM, first compound 0.03 µM
[11] = second compound 0.01 µM, first compound 0.0949 µM
[12] = second compound 0.01 µM, first compound 0.3 µM
[13] = second compound 0.0316 µM, first compound 0.000949 µM
[14] = second compound 0.0316 µM, first compound 0.003 µM
[15] = second compound 0.0316 µM, first compound 0.00949 µM
[16] = second compound 0.0316 µM, first compound 0.03 µM
[17] = second compound 0.0316 µM, first compound 0.0949 µM
[18] = second compound 0.0316 µM, first compound 0.3 µM
[19] = second compound 0.1 µM, first compound 0.000949 µM
[20] = second compound 0.1 µM, first compound 0.003 µM
[21] = second compound 0.1 µM, first compound 0.00949 µM
[22] = second compound 0.1 µM, first compound 0.03 µM
[23] = second compound 0.1 µM, first compound 0.0949 µM
[24] = second compound 0.1 µM, first compound 0.3 µM
[25] = second compound 0.316 µM, first compound 0.000949 µM
[26] = second compound 0.316 µM, first compound 0.003 µM
[27] = second compound 0.316 µM, first compound 0.00949 µM
[28] = second compound 0.316 µM, first compound 0.03 µM
[29] = second compound 0.316 µM, first compound 0.0949 µM
[30] = second compound 0.316 µM, first compound 0.3 µM
[31] = second compound 1 µM, first compound 0.000949 µM
[32] = second compound 1 µM, first compound 0.003 µM
[33] = second compound 1 µM, first compound 0.00949 µM
[34] = second compound 1 µM, first compound 0.03 µM
[35] = second compound 1 µM, first compound 0.0949 µM
[36] = second compound 1 µM, first compound 0.3 µM
[37] = second compound 0.000949 µM, first compound 0.00316 µM
[38] = second compound 0.000949 µM, first compound 0.01 µM
[39] = second compound 0.000949 µM, first compound 0.0316 µM
[40] = second compound 0.000949 µM, first compound 0.1 µM
[41] = second compound 0.000949 µM, first compound 0.316 µM
[42] = second compound 0.000949 µM, first compound 1 µM
[43] = second compound 0.003 µM, first compound 0.00316 µM
[44] = second compound 0.003 µM, first compound 0.01 µM
[45] = second compound 0.003 µM, first compound 0.0316 µM
[46] = second compound 0.003 µM, first compound 0.1 µM
[47] = second compound 0.003 µM, first compound 0.316 µM
[48] = second compound 0.003 µM, first compound 1 µM
[49] = second compound 0.00949 µM, first compound 0.00316 µM
[50] = second compound 0.00949 µM, first compound 0.01 µM
[51] = second compound 0.00949 µM, first compound 0.0316 µM
[52] = second compound 0.00949 µM, first compound 0.1 µM
[53] = second compound 0.00949 µM, first compound 0.316 µM
[54] = second compound 0.00949 µM, first compound 1 µM
[55] = second compound 0.03 µM, first compound 0.00316 µM
[56] = second compound 0.03 µM, first compound 0.01 µM
[57] = second compound 0.03 µM, first compound 0.0316 µM
[58] = second compound 0.03 µM, first compound 0.1 µM
[59] = second compound 0.03 µM, first compound 0.316 µM
[60] = second compound 0.03 µM, first compound 1 µM
[61] = second compound 0.0949 µM, first compound 0.00316 µM
[62] = second compound 0.0949 µM, first compound 0.01 µM
[63] = second compound 0.0949 µM, first compound 0.0316 µM
[64] = second compound 0.0949 µM, first compound 0.1 µM
[65] = second compound 0.0949 µM, first compound 0.316 µM
[66] = second compound 0.0949 µM, first compound 1 µM
[67] = second compound 0.3 µM, first compound 0.00316 µM
[68] = second compound 0.3 µM, first compound 0.01 µM
[69] = second compound 0.3 µM, first compound 0.0316 µM
[70] = second compound 0.3 µM, first compound 0.1 µM
[71] = second compound 0.3 µM, first compound 0.316 µM
[72] = second compound 0.3 µM, first compound 1 µM
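Also: spheroids exposed to agents for seven days before viability readout.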
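For viability, T/C in this document: 100% = DMSO vehicle control viability.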

CC1(C)CCC(Nc2ncc(C(F)(F)F)c(-c3c[nH]c4c(P(C)(C)=O)c(C#N)ccc34)n2)CN1 (stereo not drawn) + C=CC(=O)N1CCN(c2nc(OCC3CCCN3C)nc3c(F)c(-c4nc(N)cc(C)c4C(F)(F)F)c(Cl)cc23)C(C)C1
inactive: viability, T/C [1] 103% | viability, T/C [2] 102% | viability, T/C [3] 56.7% | viability, T/C [4] 33.5% | viability, T/C [5] 25.2% | viability, T/C [6] 28.3% | viability, T/C [7] 109% | viability, T/C [8] 97.8% | viability, T/C [9] 54% | viability, T/C [10] 32% | viability, T/C [11] 30.2% | viability, T/C [12] 25.7% | viability, T/C [13] 103% | viability, T/C [14] 108% | viability, T/C [15] 62.3% | viability, T/C [16] 35.4% | viability, T/C [17] 29.2% | viability, T/C [18] 31% | viability, T/C [19] 106% | viability, T/C [20] 101% | viability, T/C [21] 64% | viability, T/C [22] 33.8% | viability, T/C [23] 27.8% | viability, T/C [24] 27.6% | viability, T/C [25] 102% | viability, T/C [26] 97.3% | viability, T/C [27] 61.9% | viability, T/C [28] 36.6% | viability, T/C [29] 29.1% | viability, T/C [30] 28.7% | viability, T/C [31] 99.7% | viability, T/C [32] 94.1% | viability, T/C [33] 47.7% | viability, T/C [34] 33.8% | viability, T/C [35] 34.7% | viability, T/C [36] 28.4%
15.1 nM: IC50 (second compound 0.0316 µM)
8.99 nM: IC50 (second compound 1 µM)
12.8 nM: IC50 (second compound 0.00316 µM)
11.8 nM: IC50 (second compound 0.01 µM)
16.1 nM: IC50 (second compound 0.1 µM) | IC50 (second compound 0.316 µM)

CCc1c2c(nc3ccc(O)cc13)-c1cc3c(c(=O)n1C2)COC(=O)[C@]3(O)CC + C=CC(=O)N1CCN(c2nc(OCC3CCCN3C)nc3c(F)c(-c4nc(N)cc(C)c4C(F)(F)F)c(Cl)cc23)C(C)C1
8.32 nM: IC50 (second compound 1 µM)
13.8 nM: IC50 (second compound 0.0316 µM)
inactive: viability, T/C [1] 98% | viability, T/C [2] 103% | viability, T/C [3] 47.2% | viability, T/C [4] 27% | viability, T/C [5] 20.6% | viability, T/C [6] 16.9% | viability, T/C [7] 99.3% | viability, T/C [8] 106% | viability, T/C [9] 45.8% | viability, T/C [10] 30.2% | viability, T/C [11] 23.6% | viability, T/C [12] 17.6% | viability, T/C [13] 107% | viability, T/C [14] 115% | viability, T/C [15] 59.9% | viability, T/C [16] 32.5% | viability, T/C [17] 18.4% | viability, T/C [18] 14.9% | viability, T/C [19] 112% | viability, T/C [20] 109% | viability, T/C [21] 48.5% | viability, T/C [22] 29.4% | viability, T/C [23] 20.1% | viability, T/C [24] 16.5% | viability, T/C [25] 110% | viability, T/C [26] 98.1% | viability, T/C [27] 57.7% | viability, T/C [28] 32.4% | viability, T/C [29] 16.3% | viability, T/C [30] 12.8% | viability, T/C [31] 106% | viability, T/C [32] 110% | viability, T/C [33] 42.5% | viability, T/C [34] 28.2% | viability, T/C [35] 22.9% | viability, T/C [36] 15.4%
9.38 nM: IC50 (second compound 0.1 µM)
8.93 nM: IC50 (second compound 0.00316 µM)
14.1 nM: IC50 (second compound 0.316 µM)
8.71 nM: IC50 (second compound 0.01 µM)

C=CC(=O)Nc1cc(Nc2nccc(-c3cn(C)c4ccccc34)n2)c(OC)cc1N(C)CCN(C)C + CCn1c(-c2cc(N3CCN(C)CC3)cnc2C(C)OC)c2c3cc(ccc31)-c1csc(n1)CC(NC(=O)C1CC1C)C(=O)N1CCCC(N1)C(=O)OCC(C)(C)C2
3.16 nM: IC50 (second compound 0.03 µM)
522 nM: IC50 (second compound 0.003 µM)
216 nM: IC50 (second compound 0.00949 µM)
< 3.16 nM: IC50 (second compound 0.0949 µM) | IC50 (second compound 0.3 µM)
inactive: viability, T/C [37] 106% | viability, T/C [38] 102% | viability, T/C [39] 119% | viability, T/C [40] 101% | viability, T/C [41] 84.1% | viability, T/C [42] 56.3% | viability, T/C [43] 113% | viability, T/C [44] 109% | viability, T/C [45] 104% | viability, T/C [46] 81.9% | viability, T/C [47] 54.7% | viability, T/C [48] 43.7% | viability, T/C [49] 77.3% | viability, T/C [50] 80.4% | viability, T/C [51] 72% | viability, T/C [52] 63% | viability, T/C [53] 43.6% | viability, T/C [54] 28.7% | viability, T/C [55] 44.4% | viability, T/C [56] 48.8% | viability, T/C [57] 48.4% | viability, T/C [58] 54.9% | viability, T/C [59] 34.5% | viability, T/C [60] 32.4% | viability, T/C [61] 30.8% | viability, T/C [62] 34.1% | viability, T/C [63] 36.6% | viability, T/C [64] 36.9% | viability, T/C [65] 34.7% | viability, T/C [66] 33% | viability, T/C [67] 39.2% | viability, T/C [68] 33.1% | viability, T/C [69] 39.1% | viability, T/C [70] 37.3% | viability, T/C [71] 33.5% | viability, T/C [72] 32.5%
> 1000 nM: IC50 (second compound 0.000949 µM)

O=C(c1ccc(F)c(F)c1Nc1ccc(I)cc1F)N1CC(O)([C@@H]2CCCCN2)C1 + CCn1c(-c2cc(N3CCN(C)CC3)cnc2C(C)OC)c2c3cc(ccc31)-c1csc(n1)CC(NC(=O)C1CC1C)C(=O)N1CCCC(N1)C(=O)OCC(C)(C)C2
41.4 nM: IC50 (second compound 0.000949 µM)
6.67 nM: IC50 (second compound 0.00949 µM)
active: viability, T/C [42] 3.52% | viability, T/C [47] 5.3% | viability, T/C [48] 2.66% | viability, T/C [53] 2.25% | viability, T/C [54] 2.11% | viability, T/C [58] 3.47% | viability, T/C [59] 1.98% | viability, T/C [60] 1.79% | viability, T/C [63] 4.14% | viability, T/C [64] 1.63% | viability, T/C [65] 1.65% | viability, T/C [66] 1.53% | viability, T/C [69] 2.37% | viability, T/C [70] 1.55% | viability, T/C [71] 1.12% | viability, T/C [72] 1.16%
inactive: viability, T/C [37] 115% | viability, T/C [38] 87.5% | viability, T/C [39] 58.6% | viability, T/C [40] 27% | viability, T/C [41] 12.1% | viability, T/C [43] 101% | viability, T/C [44] 73.3% | viability, T/C [45] 39% | viability, T/C [46] 20.6% | viability, T/C [49] 66.8% | viability, T/C [50] 39.9% | viability, T/C [51] 24.2% | viability, T/C [52] 15.7% | viability, T/C [55] 32.5% | viability, T/C [56] 30.3% | viability, T/C [57] 21.2% | viability, T/C [61] 30.1% | viability, T/C [62] 19.2% | viability, T/C [67] 25.9% | viability, T/C [68] 18.8%
< 3.16 nM: IC50 (second compound 0.03 µM) | IC50 (second compound 0.0949 µM) | IC50 (second compound 0.3 µM)
22.6 nM: IC50 (second compound 0.003 µM)
